In US20230242558A1, “NICOTINATE AND NICOTINAMIDE RIBOSIDE-BASED COMPOUNDS AND DERIVATIVES THEREOF” (New Frontier Bio, Inc., priority 2022, published 2023):

Assays:
[1] = test system: HaCaT cells; test: NAD assay in HaCaT cells, total NAD level normalized to protein; assay type: cell-based; settings: 4 hours incubation, concentration not given
Description: The biological activity of certain compounds disclosed herein was determined using the following method: • 1. Plate HaCaT cells in 12-well tissue culture plates at a density of 200,000 cells per well in 0.75 mL DMEM growth medium. Incubate overnight at 37° C. in a incubator at 5% CO2. • 2. Next day, prepare dilutions of each compound in growth medium at the desired final concentration. • 3. Incubate cells as above for 4 hours. • 4. After the incubation, wash cell monolayers in each well with 200 uL PBS and add 200 uL 0.25% Trypsin. Let cells lift for 15 minutes. • 5. Once cells are lifted, collect cells into sterile 1.5 mL Eppendorf tube containing 400 uL of DMEM w/2% HI FBS. • 6. Centrifuge tubes for 500×g for 5 min. • 7. Aspirate supernatant and wash cells with 200 uL of cold PBS. • 8. Centrifuge tubes for 500×g for 5 min. • 9. Aspirate supernatant and add 400 μL of cold extraction buffer (provided in the NAD assay kit) and vortex each tube for 10 seconds. • 10. Centrifuge samples at 13,000×g for 10 min to remove insoluble material. • 11. Use a small aliquot of extract to determine total protein concentration by BCA protein assay kit. • 12. Deproteinize samples by filtering them through a 10 kDa cut-off spin filter. Centrifuge at 13,000×g for 10 min. • 13. After cell lysate is filtered, load 25 uL of samples to 96 well plate for NAD assay. • 14. Add 25 uL of extraction buffer to each well with samples to dilute them 1:2. Add 50 uL of standards to appropriate wells. • 15. Set up master reaction mix of cycling buffer and NAD cycling enzyme mix. Add 100 uL of mix to each well and incubate for […]. • 16. Add 10 uL of developer into each well. • 17. Let plate incubate at room temperature for 1 hr. • 18. Stop the reaction by adding 10 uL of stop solution into each well and mix well. • 19. Measure absorbance at 450 nm using plate reader. • 20. Plot standard curve and normalize data to determine total NAD level.

[2] = test system: NHDF cells; test: General NAD Assay Procedure: total NAD level in NHDF cells (NAD/NADH Quantification Kit); assay type: cell-based; settings: for increase in NAD levels compared with NMN: 6-hour time point, all concentrations
Description: NHDF cells (Lonza Cat #CC-2511) were plated in 12-well tissue culture plates at a density of 200,000 cells per well in 0.75 mL growth medium (Lonza FGM-2 cat #CC-3132 containing growth factors; cat #CC-4126). The plates were then incubated overnight at 37° C. in a humidified atmosphere of 5% CO2. The next day, dilutions of each test article were prepared in growth medium at 4× the desired final concentration. 250 μL of each dilution was added to respective wells to obtain desired concentration in each well. The cells were incubated for the desired length of time.
After the incubation, the cell monolayers in each well were washed with cold PBS. 400 μL of extraction buffer (provided in the NAD assay kit) was added and triturated 5-6 time. The cell lysate was collected in Eppendorf tubes and then flash frozen in a dry ice-methanol bath for 20 min then thawed at room temperature. The freeze-thaw cycle was repeated one additional time. The cell lysates were centrifuged and the supernatant collected stored at −80° C. until use.
An aliquot of extract was used to determine total protein concentration using Pierce BCA kit (Thermo Fisher Cat #23225). The total volumes of each sample were adjusted so that the total protein concentration was same in all samples.
50 μL of standards and each sample were added to appropriate wells of a 96-well plate, and the NAD assay according to the kit manufacturer's instructions (NAD/NADH Quantification Kit; Sigma-Aldrich; Catalog Number MAK037). The absorbance at 450 nm was measured using an Envision plate reader (Perkin Elmer) with default settings. The data was normalized against a blank. A standard curve was plotted and used to determine the total NAD level in each test sample.

SMILES: O=C(Nc1ccccc1C[P+](c1ccccc1)(c1ccccc1)c1ccccc1)c1cccnc1
- NAD+ level [1]: 666 pmol/mg protein

SMILES: CCCCCCCCCCCCCCOC(=O)c1ccc[n+]([C@@H]2O[C@H](COC(C)=O)[C@@H](OC(C)=O)[C@H]2OC(C)=O)c1
- NAD+ level [1]: <1 pmol/mg protein

SMILES: CCCCCCCCCCCCCCOC(=O)c1ccc[n+]([C@@H]2O[C@H](COP(=O)([O-])O)[C@@H](O)[C@H]2O)c1
- NAD+ level [1]: 475 pmol/mg protein

SMILES: O=C(OCC[P+](c1ccccc1)(c1ccccc1)c1ccccc1)c1cccnc1
- NAD+ level [1]: <1 pmol/mg protein

SMILES: CCCCCCCCCCCCCCNC(=O)c1ccc[n+]([C@@H]2O[C@H](COC(C)=O)[C@@H](OC(C)=O)[C@H]2OC(C)=O)c1
- NAD+ level [1]: <1 pmol/mg protein

SMILES: NCCOC(=O)c1cccnc1
- NAD+ level [1]: 562 pmol/mg protein

SMILES: CCCC(=O)OC[C@H]1O[C@@H]([n+]2cccc(C(=O)O)c2)[C@H](OC(=O)CCC)[C@@H]1OC(=O)CCC
- NAD+ level [1]: 831 pmol/mg protein

SMILES: CC(=O)OC[C@H]1O[C@@H]([n+]2cccc(C(=O)NCc3ccccc3)c2)[C@H](OC(C)=O)[C@@H]1OC(C)=O
- NAD+ level [1]: 399 pmol/mg protein

SMILES: CC(=O)OCC1OC([n+]2cccc(C(=O)Oc3c(C)c(C)c4c(c3C)CC[C@@](C)(CCC[C@H](C)CCC[C@H](C)CCCC(C)C)O4)c2)C(OC(C)=O)C1OC(C)=O (stereo partly drawn)
- NAD+ level [1]: 301 pmol/mg protein

SMILES: O=C(Cc1ccccc1Nc1c(Cl)cccc1Cl)OCCOC(=O)c1cccnc1
- NAD+ level [1]: <1 pmol/mg protein

SMILES: CC1=C(/C=C/C(C)=C/C=C/C(C)=C/C(=O)OCCOC(=O)c2cccnc2)C(C)(C)CCC1
- NAD+ level [1]: 788 pmol/mg protein

SMILES: NC(=O)c1ccc[n+]([C@@H]2O[C@H](COP(=O)([O-])O)[C@@H](O)[C@H]2O)c1 [NMN, nicotinamide mononucleotide, reference compound]
- Average Total NAD (pmoles) Concentration from NAD Assay ([2]; 3-Hour, Conc. 5 μM): 48.5 pmol
- Average Total NAD (pmoles) Concentration from NAD Assay ([2]; 3-Hour, Conc. 10 μM): 63.5 pmol
- Average Total NAD (pmoles) Concentration from NAD Assay ([2]; 3-Hour, Conc. 20 μM): 63.1 pmol
- Average Total NAD (pmoles) Concentration from NAD Assay ([2]; 6-Hour, Conc. 5 μM): 50.9 pmol
- Average Total NAD (pmoles) Concentration from NAD Assay ([2]; 6-Hour, Conc. 10 μM): 54.9 pmol
- Average Total NAD (pmoles) Concentration from NAD Assay ([2]; 6-Hour, Conc. 20 μM): 58.6 pmol

SMILES: O=C(O)c1ccc[n+]([C@@H]2O[C@H](COP(=O)(O)O)[C@@H](O)[C@H]2O)c1 [Sample 1, Nicotinic acid mononucleotide]
- Average Total NAD (pmoles) Concentration from NAD Assay ([2]; 3-Hour, Conc. 5 μM): 38.1 pmol
- Average Total NAD (pmoles) Concentration from NAD Assay ([2]; 3-Hour, Conc. 10 μM): 55.0 pmol
- Average Total NAD (pmoles) Concentration from NAD Assay ([2]; 3-Hour, Conc. 20 μM): 59.0 pmol
- Average Total NAD (pmoles) Concentration from NAD Assay ([2]; 6-Hour, Conc. 5 μM): 72.6 pmol
- Average Total NAD (pmoles) Concentration from NAD Assay ([2]; 6-Hour, Conc. 10 μM): 77.8 pmol
- Average Total NAD (pmoles) Concentration from NAD Assay ([2]; 6-Hour, Conc. 20 μM): 79.4 pmol

SMILES: O=C(NCCCCCC[P+](c1ccccc1)(c1ccccc1)c1ccccc1)c1ccc[n+]([C@@H]2O[C@H](COP(=O)(O)O)[C@@H](O)[C@H]2O)c1 [Sample 2, 1-((2R,3R,4S,5R)-3,4-dihydroxy-5-((phosphonooxy)methyl)tetrahydrofuran-2-yl)-3-((6-(triphenylphosphonio)hexyl)carbamoyl)pyridin-1-ium]
- Average Total NAD (pmoles) Concentration from NAD Assay ([2]; 3-Hour, Conc. 5 μM): 35.5 pmol
- Average Total NAD (pmoles) Concentration from NAD Assay ([2]; 3-Hour, Conc. 10 μM): 45.5 pmol
- Average Total NAD (pmoles) Concentration from NAD Assay ([2]; 3-Hour, Conc. 20 μM): 59.3 pmol
- Average Total NAD (pmoles) Concentration from NAD Assay ([2]; 6-Hour, Conc. 5 μM): 82.2 pmol
- Average Total NAD (pmoles) Concentration from NAD Assay ([2]; 6-Hour, Conc. 10 μM): 82.0 pmol
- Average Total NAD (pmoles) Concentration from NAD Assay ([2]; 6-Hour, Conc. 20 μM): 74.5 pmol
- increase in NAD levels compared with NMN [2]: greater increase in NAD levels than NMN

SMILES: O=C(NCCCCCC[P+](c1ccccc1)(c1ccccc1)c1ccccc1)c1cccnc1 [Sample 5]
- Average Total NAD (pmoles) Concentration from NAD Assay ([2]; 3-Hour, Conc. 5 μM): 41.6 pmol
- Average Total NAD (pmoles) Concentration from NAD Assay ([2]; 3-Hour, Conc. 10 μM): 57.5 pmol
- Average Total NAD (pmoles) Concentration from NAD Assay ([2]; 3-Hour, Conc. 20 μM): 60.0 pmol
- Average Total NAD (pmoles) Concentration from NAD Assay ([2]; 6-Hour, Conc. 5 μM): 68.2 pmol
- Average Total NAD (pmoles) Concentration from NAD Assay ([2]; 6-Hour, Conc. 10 μM): 77.0 pmol
- Average Total NAD (pmoles) Concentration from NAD Assay ([2]; 6-Hour, Conc. 20 μM): 76.0 pmol
- increase in NAD levels compared with NMN [2]: greater increase in NAD levels than NMN

SMILES: O=C(NCCCCCC[P+](c1ccccc1)(c1ccccc1)c1ccccc1)c1cccnc1 [drawing 171]
- NAD+ level [1]: 217 pmol/mg protein

SMILES: O=C(NCCCCCC[P+](c1ccccc1)(c1ccccc1)c1ccccc1)c1ccc[n+]([C@@H]2O[C@H](COP(=O)(O)O)[C@@H](O)[C@H]2O)c1 [drawing 172]
- NAD+ level [1]: 449 pmol/mg protein
